Results as given in patent US7579373B2, “Targeted bisplatinum polyamines as pro-drugs: selective release of platinum” (Virginia Commonwealth University, priority 2002, dated 2009).

Legend:
[1] = test system: CH1; assay: SRB growth inhibition assay, CH1; format: cell-based, human; conditions: 96 h exposure
Description: (§1) Cell culture. A2780, A2780/CDDP, CH1, CH1/CDDP, 41M and 41M/CDDP cell lines were used in this study and maintained according to published procedures. (8,9).
(§2) Growth inhibition assay. The Sulforhodamine B (SRB) assay was used to determine growth inhibition potency of platinum drugs (10). The cells were seeded in 96-well microtitre plates at 3-8×10^3 cells/well in 160 μL growth medium and allowed to attach overnight. Platinum agents were then added after serial dilution in quadruplicate wells and exposed to cells for 2 or 96 hours. After the 2 hours drug incubations were complete, plates were washed free of drug with phosphate-buffered saline (PBS) and then refed with normal growth medium for a further 94 hours. Quantitation of cell growth in treated and control wells was then assessed using 0.4% SRB dissolved in 1% acetic acid. IC50 values were determined graphically.
(§3) Of special interest is the remarkably low value for 4 (Fmoc) in A2780 cells.

[2] = test system: L1210/0; assay: Growth inhibition in L1210/0 cells; format: cell-based, murine; conditions: 2 hours of exposure; mean (±SE), 3 experiments of 2 determinations
Description: To examine the pro-drug potential in a biological setting, a comparison of the pharmacological properties of the blocked polyamine compounds in L1210 murine leukemia cells was undertaken.

[3] = test system: A2780; assay: SRB growth inhibition assay, A2780; format: cell-based, human; conditions: 96 h exposure
Description: as §1, §2, §3

[4] = test system: L1210/DDP; assay: Cellular accumulation in L1210/DDP cells; format: cell-based, murine; conditions: 2 hours of exposure; (±SE), 3 experiments of 2 determinations
Description: (§4) Cellular accumulation. The cellular accumulation assays followed published procedures (7). Briefly, cells were resuspended at 10^7/mL in media supplemented with […]. Platinum complexes were added, and samples were incubated at 37° C. in 5% CO2. At 0 and 2 hours aliquots were removed for determination of cell concentrations and for measurement of platinum content. For the latter, aliquots were washed three times in cold phosphate buffered saline, resuspended in 1% Triton-X in water, and sonicated. Platinum content was measured by flameless atomic absorption spectroscopy.
(§5) The cellular accumulation of the blocked Pt compound 2 was also investigated. […] Based solely on charge considerations the BOC-spermidine with a charge of 2+ should have cellular uptake similar to 1,1/t,t (n=6). The enhanced uptake could be explained by some hydrolysis in media or plasma producing small amounts of the protonated 1,1/t,t-spermidine. Considering the potency of polynuclear-polyamine compounds, a small percentage of hydrolysis could have a significant impact on in vivo activity.

[5] = pKa of the N4 site by pH titration monitored by 1H NMR; format: physicochemical
Description: pH measurements were taken on a Corning 340 pH meter with combined glass electrode. pD values in deuterated solutions were obtained by addition of 0.4 units to the meter reading. Extinction coefficients were determined with a Jasco V-550 UV/VIS spectrophotometer using 1 cm cuvettes.
In order to find the optimal conditions for the synthetic procedure, the pKa of the N4 site of the unprotected Pt spermidine complex 1 was determined prior to the protection reactions (6). A pH titration was carried out and monitored by ^1H NMR spectroscopy (11 and 12). […] The increased acidity is most likely a consequence of the electron withdrawing effect of the coordinated platinum centers.

[6] = test system: CH1/CDDP; assay: SRB growth inhibition assay, CH1/CDDP; format: cell-based, human
Description: as §1
as §2, with “graphically. […]” for “graphically.”

[7] = test system: L1210/0; assay: Cellular accumulation in L1210/0 cells; format: cell-based, murine; conditions: 2 hours of exposure; (±SE), 3 experiments of 2 determinations
Description: as §4, §5

[8] = test system: A2780/CDDP; assay: SRB growth inhibition assay, A2780/CDDP; format: cell-based, human; conditions: 96 h exposure
Description: as §1
as §2, with “graphically. […]” for “graphically.”

[9] = test system: L1210/DDP; assay: Growth inhibition in L1210/DDP cells; format: cell-based, murine
[10] = test system: 41M; assay: SRB growth inhibition assay, 41M; format: cell-based, human; conditions: 96 h exposure
Description: as §1, §2, §3

Compound: N.N.N.N.NCCCC[NH2+]CCCN.[Cl-].[Cl-].[Cl-].[Cl][Pt+].[Cl][Pt+] [Compound 1, [{trans-Pt(NH3)2Cl}2-μ-spermidine-N^1,N^8]Cl3]
- IC50 [1]: 430 nM
- IC50 [2]: 750 nM
- IC50 [3]: < 250 nM
- Accumulation L1210/DDP [4]: 20 (2.1) attamol Pt complex/cell
- pKa of the N4 site [5]: 9.24±0.05
- IC50 ([6]; 96 h exposure): 350 nM
- RF CH1/CDDP ([6]; IC50 resistant/IC50 parent line, 96 h): 0.8
- Accumulation L1210/0 [7]: 17 (3.4) attamol Pt complex/cell
- IC50 [8]: < 250 nM
- IC50 ([9]; 2 hours of exposure, mean (±SE), 3 experiments of 2 determinations): 260 nM
- RF, resistance factor ([9]; IC50 L1210/DDP / IC50 L1210/0, 2 hours of exposure): 0.35
- IC50 [10]: < 250 nM
